Values of other authors in publication PMC4905688 (Biomaterials, 2016).

Tested on: ischemic limbs

For VEGF, the “Effect of local delivery on ischemia / vessels” value is listed as “modest reversal of ischemia or the development of leaky blood vessels”.
